Data on ten compounds can be found in US20240199587A1, “HETEROCYCLIC COMPOUNDS” (Hoffmann-La Roche Inc., priority 2021, published 2024).

Each structure is given as a SMILES string.

The target in this experiment is T1, MAGL (Homo sapiens, UniProt Q99685).
T1 sequence (Q99685 1-303): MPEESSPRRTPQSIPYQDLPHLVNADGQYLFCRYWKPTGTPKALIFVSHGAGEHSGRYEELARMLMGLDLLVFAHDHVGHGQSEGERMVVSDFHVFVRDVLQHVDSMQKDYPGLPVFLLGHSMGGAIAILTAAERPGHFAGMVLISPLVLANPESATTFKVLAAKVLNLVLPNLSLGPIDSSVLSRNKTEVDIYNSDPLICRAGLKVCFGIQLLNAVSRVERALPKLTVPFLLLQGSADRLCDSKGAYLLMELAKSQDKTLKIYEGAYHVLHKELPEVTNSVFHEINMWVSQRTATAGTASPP
The experiment is described as follows: 2-AG assay (MAGL inhibitory activity, hydrolysis of 2-arachidonoylglycerol to arachidonic acid followed by mass spectrometry). Conditions: 8 μM 2-arachidonoylglycerol, 15 min pre-incubation, 30 min incubation at RT, RapidFire MS readout. It counts as biochemical. The method, boiled down:
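Human MAGL ([…] final) pre-incubated 15 min at RT with compound in 50 mM TRIS, 1 mM EDTA, 0.01% Tween-20, 2.5% DMSO; 8 μM 2-AG then added for 30 min at RT. Acetonitrile quench with d8-arachidonic acid; arachidonic acid measured by RapidFire SPE–MS/MS, activity from arachidonic acid/d8 ratio.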
Broadly, the IC50 is the point on the concentration scale where inhibition reaches its midpoint. In turn, `N#Cc1cc(CC2CC3(C2)CN(C(=O)N2CC4(CC(n5cnc(C6(O)CC6)n5)C4)C2)C3)ccc1C(F)(F)F` [Example 365, 5-[[2-[6-[3-(1-hydroxycyclopropyl)-1,2,4-triazol-1-yl]-2-azaspiro[3.3]heptane-2-carbonyl]-2-azaspiro[3.3]heptan-6-yl]methyl]-2-(trifluoromethyl) benzonitrile] gave an IC50 of 1.83 nM.

`CS(=O)(=O)c1cc(Cl)ccc1-c1ccc(C2CN(C(=O)N3CC4(CC(c5cncc(F)c5)C4)C3)C2)cc1` [Example 366, [3-[4-(4-chloro-2-methylsulfonyl-phenyl)phenyl]azetidin-1-yl]-[6-(5-fluoro-3-pyridyl)-2-azaspiro[3.3]heptan-2-yl]methanone] showed an IC50 of 14.2 nM.

Turning to `O=C(N1CC2(CC(Cc3ncc(Cl)cc3F)C2)C1)N1CC2(CC(n3cnc(C4(O)CC4)n3)C2)C1` [Example 367, [6-[(5-chloro-3-fluoro-2-pyridyl)methyl]-2-azaspiro[3.3]heptan-2-yl]-[6-[3-(1-hydroxycyclopropyl)-1,2,4-triazol-1-yl]-2-azaspiro[3.3]heptan-2-yl]methanone], the IC50 was 2.38 nM.

Consider `N#Cc1ccc(CC2CC3(C2)CN(C(=O)N2CC4(CC(n5cnc(C6(O)CC6)n5)C4)C2)C3)cc1C(F)(F)F` [Example 368, 4-[[2-[6-[3-(1-hydroxycyclopropyl)-1,2,4-triazol-1-yl]-2-azaspiro[3.3]heptane-2-carbonyl]-2-azaspiro[3.3]heptan-6-yl]methyl]-2-(trifluoromethyl) benzonitrile], for which the half-inhibitory concentration (IC50) was 1.57 nM.

Compound `O=C(N1CC2(CC(n3cnc(C4(O)CC4)n3)C2)C1)N1CC2(CCN(Cc3ccc(S(=O)(=O)C(F)(F)F)cc3)C2)C1` [Example 369, [6-[3-(1-hydroxycyclopropyl)-1,2,4-triazol-1-yl]-2-azaspiro[3.3]heptan-2-yl]-[7-[[4-(trifluoromethylsulfonyl)phenyl]methyl]-2,7-diazaspiro[3.4]octan-2-yl]methanone] displayed an IC50 of 49.3 nM.

`N#Cc1cc(CC2CC3(C2)CN(C(=O)N2CC4(CC(n5cnc(C6(O)CC6)n5)C4)C2)C3)cc(C(F)(F)F)c1` [Example 370, 3-[[2-[6-[3-(1-hydroxycyclopropyl)-1,2,4-triazol-1-yl]-2-azaspiro[3.3]heptane-2-carbonyl]-2-azaspiro[3.3]heptan-6-yl]methyl]-5-(trifluoromethyl) benzonitrile] registered an IC50 of 0.9 nM.

Take `CS(=O)(=O)c1cc(Cl)ccc1-c1ccc(C2CN(C(=O)N3CC4(CC(c5ccc(C(F)(F)F)nc5)C4)C3)C2)cc1` [Example 371, [3-[4-(4-chloro-2-methylsulfonyl-phenyl)phenyl]azetidin-1-yl]-[6-[6-(trifluoromethyl)-3-pyridyl]-2-azaspiro[3.3]heptan-2-yl]methanone]: the IC50 came to 9.23 nM.

As to `O=C(N1CC(c2ccc(NCC3(C(F)(F)F)CC3)nc2)C1)N1CC2(CC(n3cnc(C4(O)CC4)n3)C2)C1` [Example 372, [6-[3-(1-hydroxycyclopropyl)-1,2,4-triazol-1-yl]-2-azaspiro[3.3]heptan-2-yl]-[3-[6-[[1-(trifluoromethyl)cyclopropyl]methylamino]-3-pyridyl]azetidin-1-yl]methanone], the IC50 stood at 1.12 nM.

In the case of `O=C(N1CC(c2ccc(N3CC[C@@H](C(F)(F)F)C3)nc2)C1)N1CC2(CC(n3cnc(C4(O)CC4)n3)C2)C1` [Example 373, [6-[3-(1-hydroxycyclopropyl)-1,2,4-triazol-1-yl]-2-azaspiro[3.3]heptan-2-yl]-[3-[6-[(3R)-3-(trifluoromethyl)pyrrolidin-1-yl]-3-pyridyl]azetidin-1-yl]methanone], the IC50 came to 3.24 nM.

On to `CS(=N)(=O)c1cccc(CC2CC3(C2)CN(C(=O)N2CC4(CC(n5cnc(C6(O)CC6)n5)C4)C2)C3)c1` (stereo not shown) [Example 374, [6-[3-(1-hydroxycyclopropyl)-1,2,4-triazol-1-yl]-2-azaspiro[3.3]heptan-2-yl]-[6-[[3-(methylsulfonimidoyl)phenyl]methyl]-2-azaspiro[3.3]heptan-2-yl]methanone], for which half-maximal inhibition (IC50) required 52.9 nM.
